In patent US11465984B2, “Compound having ERK kinase inhibitory activity and use thereof” (SHANGHAI HAIHE PHARMACEUTICAL CO., LTD., priority 2017, dated 2022) one finds IC50 and solubility data, which are given here for one compound.

Broadly, the IC50 is the concentration that gives 50% inhibition.

For data set [1], the system named is human melanoma cell line A375. Description: In vitro cell study: proliferation of A375 cells (SRB). It counts as cell-based. Conditions: A-375, 72 h incubation, read-out: IC50 against A375 cell. As for the experimental part:
The inhibitory activity of Compound P9 of the invention and the representative compounds of WO2017/114510A1 on the proliferation of human melanoma cell line A375 (IC50 value) was determined in this Example.
• Cell: human melanoma cell line A375 (CRL-1619™, ATCC) • Detection reagent: sulforhodamine B SRB (S9012, Sigma) • Microplate: 96 well microplate (3599, Corning) • Microplate reader: full-wavelength microplate reader (SpectraMax 190, Molecular Devices) (2). Assay Protocol:
Cells in logarithmic growth phase were seeded at appropriate density (3500/well) into 96-well microplates in the volume of 90 μL per well. After incubation in a CO2 incubator at 37° C. overnight, 10 μL of the compound at various concentrations or saline for medium control was added in triplicate and incubated for 72 h, and a blank well was set. […] The optical density (OD value) at the wavelength of 560 nm was measured using a full-wavelength microplate reader SpectraMax 190. The inhibition rate of the drug on the growth of the tumor cells was calculated according to the following formula: […]
The IC50 values were obtained by regression with four-parameter method using the software attached to the microplate reader. […]

The nature of data set [2]: Thermodynamic solubility assay. It counts as physicochemical. Conditions: thermodynamic from solid, 37° C. Here is the method: The thermodynamic solubility of the compounds of the invention was determined in this Example
(3) Assay Protocol: Blank Vehicle with Different pH Values: • PH7.4: DPBS • PH6.8: 9900 μL HBSS+100 μL HEPS+5 μL 2N NaOH • […]: DPBS adjusted with 2N HCl to pH 2.0 Incubation: • About 3 mg of the compound was weighed, added with 500 μL of blank vehicle, and shaked at 37° C. for 24 h. Sample Treatment: • After incubation, the samples were centrifuged for 30 min, and the supernatant was transferred to a new EP tube and further centrifuged for 30 min • After centrifugation, the samples were diluted by 100 times with ACN/H2O (V/V, 1:1). • Linear concentration range from 12.5 nM to 1 mM was configured with ACN/H2O (V/V, 1:1). Biological Analysis: • All samples were mixed with water at the 1:1 ratio by volume, centrifuged at 4000 rpm for 5 min, and analyzed by LC-MS/MS. Analysis Methods:
Chromatography Conditions: • Analysis column: Acquity BEH C18 (1.7 μm; 2.1×50 mm, Waters) • Mobile phase A: 0.1% FA in H2O • Mobile phase B: 0.1% FA in CAN/MEOH (9:1, V/V) • Gradient: as shown in the table below.
MS/MS System • Multiple Reaction Monitoring (MRM) mode was used: […]

In brackets after ≈: the same amount, converted by molar mass. Read-outs that look alike come from different tables or passages of the source.

As to `Cn1nccc1Nc1cc(-c2cc(F)c3c(c2)CCN3C(=O)Cc2cccnc2Cl)ccn1` [Example P9, 2-(2-chloropyridin-3-yl)-1-(7-fluoro-5-(2-((1-methyl-1H-pyrazol-5-yl)amino)pyridin-4-yl)indolin-1-yl)ethan-1-one], the IC50 in data set [1] was determined as 0.363 µM. Besides, the solubility at 24 h came to 267 ± 3 µM (≈ 124 µg/mL) in data set [2] (HBSS/HEPES 10 mM/BSA 0.1% pH 6.8, pH 6.8, aqueous buffer, read-out: Maximum solubility in pH 6.8 HBSS/HEPES 10 mM/BSA 0.1%); 2850 ± 62 µM (≈ 1320 µg/mL) in data set [2] (PBS (DPBS) pH 2.0, pH 2, aqueous buffer, read-out: Maximum solubility in pH 2.0 PBS); 544 ± 5.3 µM (≈ 252 µg/mL) in data set [2] (PBS buffer, pH 7.4, aqueous buffer, read-out: Maximum solubility in pH 7.4 PBS).
